# ChEMBL document CHEMBL1144071, “Elisabatins A and B: new amphilectane-type diterpenes from the West Indian sea whip Pseudopterogorgia elisabethae” (1999)
# Calls of active or inactive are those of the source. The rule behind the calls is not given here.
# How the values were obtained:
# [1] = system: Human immunodeficiency virus; test: Antiviral activity against HIV by NCI test; format: functional, organism-based
# [2] = system: Mycobacterium tuberculosis; test: Antimycobacterial activity against Mycobacterium tuberculosis at 12.5 ug/mL; format: functional
compound,measurement,setting,value
CC(C)=C[C@@H]1C[C@H](C)c2c(O)cc(C)c3c2C1=C(C)C(=O)C3=O [ELISABATIN A],Activity,[1],inactive
same,Activity,[2],21%
